Data published in PMC5998989 (Pain Medicine: The Official Journal of the American Academy …, 2017).
“And” between values parts separate entries of the source, which are not always exact repeats. Identical values can stand only once.

What was measured:
[1] = system: cannabinoid receptors / TRPV1 receptors; conditions: cited from earlier work
healthy female subjects [2] = assay: Safety and tolerability; type: in vivo, human
patients with PNP = conditions: cited from earlier work
healthy female subjects [3] = assay: Laser evoked potentials; type: in vivo, human; conditions: for Dose at which the maximum postdose response was attained: LEP N2-P2 PtP, once daily multiple dosing; for Time to maximum response (percentage change in LEP N2-P2 PtP amplitudes): after dosing
rats = conditions: ref unpublished data; cited from earlier work
healthy female subjects [4] = assay: VAS pain; type: in vivo, human; conditions: all subjects
[5] = Plasma pharmacokinetics after multiple ascending once daily doses; type: in vivo, human

In the case of `CCCCC/C=C\C/C=C\C/C=C\C/C=C\CCCC(=O)NCCO` [AEA, N-arachidonoyl-ethanolamine], the “Potency toward cannabinoid receptors relative to that toward TRPV1 receptors” value [1] is given as “about 10 times”.

With `O=C(Nc1ccccc1)C1CCN(C(=O)Oc2cccnc2)CC1` [ASP8477] the Tolerability (healthy female subjects [2]; ascending doses of 20 mg, 60 mg, and 100 mg once daily) was “well tolerated”, the “Subjects reporting a treatment-emergent adverse event (TEAE)” value (healthy female subjects [2]; during treatment, all doses) was 83% and the “TEAE disorientation, subjects” value (healthy female subjects [2]; during treatment, all doses) was 8%. The “TEAE disturbance in attention and illusion, subjects” value (healthy female subjects [2]; during treatment, all doses) was 13%, the “TEAE dry mouth, subjects” value (healthy female subjects [2]; during treatment, all doses) was 21% and the “TEAE fatigue, subjects” value (healthy female subjects [2]; during treatment, all doses) was 29%. The “TEAE headache, subjects” value (healthy female subjects [2]; during treatment, all doses) was 29%, the “TEAE memory impairment, subjects” value (healthy female subjects [2]; during treatment, all doses) was 13% and the “TEAE vertigo, subjects” value (healthy female subjects [2]; during treatment, all doses) was 29%. The “Difference between ASP8477 and placebo” value (patients with PNP; double-blind randomized withdrawal period) was “no difference”, the “Patients reporting a reduction of ≥30% in their pain” value (patients with PNP; single-blind period, 30 mg BID) was ~60% and the “Mean Difference (95% CI) vs placebo, LEP N2-P2 PtP amplitude, secondary analysis” value (healthy female subjects [3]; 100 mg day 21 vs placebo day 21, all subjects, session as a random effect) was −1.58 (−3.30 to 0.15) µV. The “Mean Difference (95% CI) vs placebo, LEP N2-P2 PtP amplitude, primary analysis” value (healthy female subjects [3]; 100 mg day 21 vs placebo day 21, all subjects, session as replications) was −1.58 (−3.30 to 0.14) µV, the “LS mean PtP (SE), LEP N2-P2 PtP amplitude, secondary analysis” value (healthy female subjects [3]; 100 mg, day 21, all subjects, linear mixed regression model with session as a random effect) was 29.66 (2.80) µV and the “LS mean PtP (SE), LEP N2-P2 PtP amplitude, primary analysis” value (healthy female subjects [3]; 100 mg, day 21, all subjects, linear mixed regression model with session as replications) was 28.31 (2.75) µV. The “Dose at which the maximum postdose response was attained” value (healthy female subjects [3]) was 20 mg, the “Time to maximum response (percentage change in LEP N2-P2 PtP amplitudes)” value (healthy female subjects [3]) was “approximately one to four” and the “Day 14 predose response for LEP N2-P2 PtP amplitudes, % of the maximum response” value (healthy female subjects [3]; all subjects) was 4% and 8%. The “Day 21 predose response for LEP N2-P2 PtP amplitudes, % of the maximum response” value (healthy female subjects [3]; all subjects) was 19%, the “LEP N2-P2 PtP cumulative magnitude of response (AUC)” value (shortened to “LEP N2-P2 PtP cumulative magnitude”) (healthy female subjects [3]; all subjects) was “approximately 200” and the “LEP N2-P2 PtP amplitudes, overall mean” value (healthy female subjects [3]; all subjects, across all doses) was 28.51 µV. For the same compound, the “Mean difference vs placebo in LEP N2-P2 PtP amplitudes” value (healthy female subjects [3]; all subjects, across all doses) was “–1.41 µV”, the “Day 21 predose effect for LEP N2-P2 PtP amplitudes, % of the maximum achievable effect” value (healthy female subjects [3]; capsaicin-positive subgroup) was 40% and the “LEP N2-P2 PtP cumulative magnitude” value (healthy female subjects [3]; capsaicin-positive subgroup, day 7) was “approximately 400”. The “LEP N2-P2 PtP cumulative magnitude” value (healthy female subjects [3]; capsaicin-positive subgroup, day 14) was ~420, the “LEP N2-P2 PtP cumulative magnitude” value (healthy female subjects [3]; capsaicin-positive subgroup, day 21) was ~470 and the “Effects in nonclinical toxicity studies” value (rats) was “effects observed on male fertility”. The “Day 14 predose response for VAS pain scores, % of the maximum response” value (healthy female subjects [4]) was 23%, the “Day 21 predose response for VAS pain scores, % of the maximum response” value (healthy female subjects [4]) was 4% and the “Mean difference vs placebo in VAS pain score” value (healthy female subjects [4]; all doses) was “–2.55%”. The “Mean VAS pain score” value (healthy female subjects [4]; all three doses (overall)) was 42.23%, the “Dose proportionality of PK parameters” value ([5]; between 20 mg and 100 mg, multiple ascending doses) was “more than dose-proportional” and the “Absorption following oral dosing” value ([5]; oral dosing) was “rapidly absorbed”. The “Median tmax (range)” value ([5]; oral dosing, all doses) was 2.1 to 4.1 h.

For `CNCC[C@H](Oc1cccc2ccccc12)c1cccs1` [duloxetine, reference compound], the “TEAE fatigue, subjects” value (healthy female subjects [2]; during treatment, all doses) was 29%, the “TEAE nausea, subjects” value (healthy female subjects [2]; during treatment, all doses) was 29% and the “Dose at which the maximum postdose response was attained” value (healthy female subjects [3]) was 30 mg. For the same compound, the “Time to maximum response (percentage change in LEP N2-P2 PtP amplitudes)” value (healthy female subjects [3]) was “approximately one to four”, the “Day 14 predose response for LEP N2-P2 PtP amplitudes, % of the maximum response” value (healthy female subjects [3]; all subjects) was 26% and the “Day 21 predose response for LEP N2-P2 PtP amplitudes, % of the maximum response” value (healthy female subjects [3]; all subjects) was 44%. The “LEP N2-P2 PtP amplitudes, overall mean” value (healthy female subjects [3]; all subjects, across all doses) was 24.71 µV, the “Mean difference duloxetine vs ASP8477 in LEP N2-P2 PtP amplitudes” value (healthy female subjects [3]; all subjects, across all doses) was “–3.80 µV” and the “Mean difference vs placebo in LEP N2-P2 PtP amplitudes” value (healthy female subjects [3]; all subjects, across all doses) was “–5.21 µV”. The “Day 14 predose effect for LEP N2-P2 PtP amplitudes, % of the maximum achievable effect” value (healthy female subjects [3]; capsaicin-positive subgroup) was 40%, the “Day 21 predose effect for LEP N2-P2 PtP amplitudes, % of the maximum achievable effect” value (healthy female subjects [3]; capsaicin-positive subgroup) was “around 40%” and the “Time to maximum effect” value (healthy female subjects [3]; postdose) was “five”. The “Day 14 predose response for VAS pain scores, % of the maximum response” value (healthy female subjects [4]) was 17%, the “Day 21 predose response for VAS pain scores, % of the maximum response” value (healthy female subjects [4]) was 10% and the “PK parameters of 60 mg compared with 30 mg” value ([5]; once daily for seven days) was “approximately doubled”.
